In a melting point compilation (Tetko et al.; mined from patent text by program, amines drawn as free bases though some values may be those of a salt) one finds melting point data, which are given here for 86 compounds.

As a reminder, the melting point is the temperature, or range, at which the solid turns liquid. `CCOC(=O)c1cc2c(cn1)[nH]c1ccc([N+](=O)[O-])c(OCc3ccccc3)c12` yielded a melting point of 254 °C.

Compound `Nc1cc(Cl)ccc1C(=O)NO` registered a melting point of 131 to 133 °C.

The compound `Cc1oc(-c2ccccc2)nc1CCC(=NO)c1ccc(CCCC2OC(=O)NC2=O)cc1` (stereo unspecified) had a melting point of 185 to 186 °C.

On to `Nc1ncnc2c1nnn2[C@@H]1C[C@H](CO)[C@@H](O)[C@@H]1F`, for which the melting point lay within 214 to 216 °C.

The compound `COC(=O)n1c(SCc2nccc(SCCN3CCOCC3)c2C)nc2ccccc21` came in with a melting point of 151 to 153 °C.

Turning to `CC1(C)OC(c2ccc(S(N)(=O)=O)cc2F)=C(c2ccccc2)C1=O`, the melting point was in the range of 79 to 81 °C.

As for `CC[C@@H](c1ccccc1)N(Cc1ccc(C(=O)OC)c(F)c1F)S(=O)(=O)c1ccc(Cl)cc1`, the melting point lay within 87 to 89 °C.

Consider `COC(=O)N[C@@H](Cc1ccc(OCc2ccccc2)cc1)C(=O)Nc1c(C(C)C)cccc1C(C)C`, for which the melting point lay within 179 to 182 °C.

Turning to `Cc1cc(C=O)ccc1C(N)=O`, the melting point lay in the range of 119 to 121 °C.

`CCOc1cc(Cl)nc(Sc2ccc(C)cc2)n1`: the melting point was 94 to 97 °C.

In turn, `CN(C(=O)Nc1ccsc1)c1cccc2cc(-c3nccs3)[nH]c12` showed a melting point of 266 °C.

Consider `N=C(Nc1ccccc1-c1ccc(F)cc1)N1CCC(O)CC1`, for which the melting point fell in the range of 132 to 133 °C.

In turn, `CNC(=O)N(CCN1CCC(Nc2nc3ccccc3n2Cc2ccc(F)cc2)CC1)c1nccs1` returned a melting point of 172 °C.

As to `CC(C(=O)c1ccc(F)cc1F)n1cnc(-c2ccc(OCc3ccccc3)cc2)n1` (stereo unspecified), the melting point lay in the range of 80 to 97 °C.

Regarding `CCOC(=O)C1(Cc2ccccc2)CC(=O)N(c2ccnc(NC(=O)NCc3ccccn3)c2)C1` (stereo unspecified), the melting point was 158 to 160 °C.

Take `COc1ccc(C(=CC(=O)N2CCOCC2)c2ccc(Oc3nc(Cl)nc(Cl)n3)cc2)cc1OC`: the melting point was in the range of 90 to 100 °C.

As to `CCCc1nc(-n2cccc2)c(C#N)[nH]1`, the melting point was in the range of 75 to 78 °C.

In turn, `Cn1c(COc2ccc(CC3SC(=O)NC3=O)cc2)nc2ccc(Oc3ccc4cccc(NC(=O)Nc5ccc(C(F)(F)F)cc5)c4c3)cc21` (stereo unspecified) came in with a melting point of 250 to 254 °C.

Regarding `O=C(C(=O)c1ccc(Cl)cc1Cl)c1ccncc1`, the melting point was determined as 85 °C.

`Cc1cc(N)c([N+](=O)[O-])cc1NC(=O)OCCCl`: the melting point was found to be 192 °C.

For the compound `Cc1c(C(=O)O)sc2cc(Cc3cccnc3)ccc12`, the melting point lay within 250 to 252 °C.

For `COC(=O)c1ccc(Cc2cn(C)c3ccc(CCNC(=O)N(C)C)cc23)c(OC)c1`, the melting point fell in the range of 122 to 124 °C.

For `CCc1ccc(-c2cc3ncnc(Nc4ccc5[nH]ccc5c4)c3s2)cc1`, the melting point was in the range of 171 to 182 °C.

The compound `CCOCc1nc2c(N)nc3ccccc3c2n1CCCCS(=O)(=O)NC` gave a melting point of 170 to 172 °C.

Turning to `Cc1nnc2n1-c1ccc([N+](=O)[O-])cc1C(c1ccccc1Cl)=CC2`, the melting point fell in the range of 225 to 227 °C.

With `O=C1CCCN1CCCNc1cc(C(c2cc(F)ccc2F)S(=O)(=O)c2ccc(Cl)cc2)c(Cl)cn1` (stereo unspecified), the melting point is 78 to 80 °C.

In the case of `Cc1ccc(-c2nc(Sc3ccc(Cl)cc3)cc(N3CCN(CCO)CC3)n2)cc1`, the melting point fell in the range of 123 to 125 °C.

Turning to `CCOC(=O)c1cc(CBr)ccc1S(=O)(=O)NC(=O)Nc1nc(OC)cc(OC)n1`, the melting point lay within 195 to 197 °C.

Regarding `CCN(C)C(=O)c1cc(-c2ccccc2)oc1-c1ccc(OC)c(OC)c1`, the melting point was 74 °C.

As for `Cc1cnc(C(N)=O)cn1`, the melting point was in the range of 204 to 206 °C.

`CC(=O)NCCNc1nc(Nc2ccc3[nH]nnc3c2)ncc1C(F)(F)F` yielded a melting point greater than 300 °C.

With `CC(=O)N1CCN(CCOc2cc(OC(C)C)c3c(Nc4c(Cl)cnc5c4OCO5)ncnc3c2)CC1`, the melting point lay in the range of 208 to 210 °C.

Turning to `O=C(NCCNCC(O)COc1ccc(O)cc1F)C1CCOCC1` (stereo unspecified), the melting point lay in the range of 101 to 104 °C.

In turn, `O=C(O)c1ccc(-c2c([N+](=O)[O-])oc3ccc(-c4ccccc4)cc23)cc1` returned a melting point of 235 to 249 °C.

`CC(=O)N1CCC(CC(=O)c2ccc(Nc3ncnc4c3CCC4)cc2)CC1` showed a melting point of 225 to 227 °C.

Regarding `O=C(c1ccc(Cl)cc1Cl)N1CCc2cc(S(=O)(=O)N3CCN(c4cccc(Cl)c4)CC3)ccc21`, the melting point turned out to be 184 °C.

As to `CCCCOc1nc(N)nc2[nH]cnc12`, the melting point amounted to 165 °C.

For the compound `Clc1ccc(N2CCN(Cc3c[nH]c4ncccc34)CC2)cc1Cl`, the melting point is 219 to 220 °C.

`[N-]=[N+]=Nc1cc(=O)oc2ccccc12` gave a melting point of 159 to 160 °C.

The compound `CN(C)c1ncc(-c2cccc(-n3cnc4cc(-n5cccc5)ccc43)c2)cn1` displayed a melting point of 237 to 238 °C.

In turn, `O=C1C(=Cc2ccc(Cl)cc2)CCCC1=Cc1ccc(Cl)cc1` had a melting point of 142 to 144 °C.

As to `O=C(Nc1ccc(F)cc1)N(O)Cc1ccc(OCc2csc(-c3ccc(C(F)(F)F)cc3)n2)cc1`, the melting point fell in the range of 174 to 176 °C.

Take `CC(=O)NC1([N+](=O)[O-])C=C(C)C=CN1` (stereo unspecified): the melting point lay in the range of 146 to 149 °C.

Regarding `O=C(Cc1cccc(Br)c1)Nc1cccc(C(=O)NO)c1`, the melting point fell in the range of 184 to 186 °C.

`CC1(C)CCOCN1C(=O)C(Cl)Cl` showed a melting point of 105 to 106 °C.

Compound `O=[N+]([O-])C=Cc1ccc(O)c(Cl)c1` gave a melting point of 127 to 129 °C.

Turning to `Nc1ncc(C#Cc2ccc(Cl)cc2)c(NCCO)n1`, the melting point lay in the range of 197 to 200 °C.

As for `COC(=O)c1ccc(CCc2cc3cc(C#N)ccc3o2)cc1`, the melting point was in the range of 114 to 115 °C.

Compound `O=C1c2ccccc2N(c2ccc(F)cc2)C2=NCCN12` registered a melting point of 278 to 280 °C.

Compound `CC1(C)CC(=O)C(C(=O)Nc2cccc([N+](=O)[O-])c2)C(=O)O1` (stereo unspecified) came in with a melting point of 138 to 140 °C.

Consider `COc1ccc2c(c1)CCC(C=O)=C2C`, for which the melting point is 70 to 72 °C.

Turning to `COc1cc(C(=O)N(C(C)C)C2CCCCC2)ccc1Cn1cccc2nc(-c3cccnc3)nc1-2`, the melting point was 185 to 188 °C.

The compound `Cc1noc(NC(=O)c2cnccc2C(F)(F)F)c1Cl` had a melting point of 153 to 156 °C.

In turn, `O=C1c2ccccc2C(O)N1c1ccc2ccc(F)nc2n1` (stereo unspecified) displayed a melting point of 246 °C.

`OCc1c(CO)c(-c2ccc(F)c(F)c2)n2c1Cc1ccccc1C2`: the melting point was in the range of 145 to 146 °C.

For `O=C(OCC(O)CO)c1cc(F)ccc1Nc1ccnc2cc(Cl)ccc12` (stereo unspecified), the melting point is 168 °C.

`CN(C)CCN1C(=O)c2ccc3[nH]c4cc(O)c(O)cc4c3c2C1=O` showed a melting point greater than 260 °C.

Take `O=C(Nc1nncs1)c1ccc2ccccc2c1`: the melting point fell in the range of 197 to 199 °C.

As to `Cc1c(C)n(CCCF)c2c(OCc3ccccc3)nncc12`, the melting point was 100 to 101 °C.

On to `CC(=O)c1ccc(SC2SCC(O)C(O)C2O)cc1` (stereo unspecified), for which the melting point is 175 °C.

Compound `Brc1ccc(N2CCCN(c3ccc(Br)cn3)CC2)nc1` had a melting point of 178 to 181 °C.

`CC(C)(C)c1cc(-c2nn(Cc3ccccc3)c3ncccc23)cc(C(C)(C)C)c1O`: the melting point was 155 to 157 °C.

For the compound `CCCCOCCCNC(=O)c1cnc(C(=O)NCC(=O)OCCCC)c(OC)c1`, the melting point is 115 to 117 °C.

`Cc1nc2c(cc1C=O)CCCCC2` had a melting point of 38 to 40 °C.

Take `COC(=O)c1cc(C(C)(C)C)c(OC(=O)c2cc(C(C)(C)C)c(O)c(C(C)(C)C)c2)c(C(C)(C)C)c1`: the melting point lay in the range of 206 to 209 °C.

For the compound `CCC(=CC(CSc1nc2ccccc2s1)=NO)C(C)[N+](=O)[O-]` (stereo unspecified), the melting point was in the range of 102 to 103 °C.

In turn, `CCc1nc2c(N)nc3ccccc3c2n1CC#Cc1cccc([N+](=O)[O-])c1` registered a melting point of 224 to 243 °C.

`CCc1cn(C2CC(OC(C)=O)C(CN(C)C(=O)Cc3ccccc3Br)O2)c(=O)[nH]c1=O` (stereo unspecified) showed a melting point of 170 °C.

Compound `O=C1c2ccccc2C2(c3ccccc3)NCCCCN12` (stereo unspecified) had a melting point of 180 to 181 °C.

In the case of `O=C(NCCOc1cc(-c2ccccc2)on1)c1ccccc1`, the melting point is 129 to 130 °C.

As for `CCn1cc(S(=O)(=O)NC(=O)c2cn3cc(C(F)(F)F)cc(Cl)c3n2)c(Cl)n1`, the melting point lay in the range of 184 to 185 °C.

Turning to `COC1=C(OC)C(=O)C2=C(CCC(CCOc3ccc(Cl)cc3)CC2)C1=O`, the melting point is 117 to 119 °C.

Take `O=C(NCC12CC3CC(CC(C3)C1)C2)c1c(Cl)ccc2nc(N3CCC[C@H](NCCc4nn[nH]n4)C3)ccc12`: the melting point is 168 to 172 °C.

`O=C(O)C1(c2ccc(Nc3nc(C4CCCC4)nc4c3CCC4)cc2)CCCC1` registered a melting point of 321 to 325 °C.

As to `c1cncc(C2CCCCC2)c1`, the melting point lay within 78 to 80 °C.

As to `CCCc1c(SCCCOc2ccc3c(=O)cc(C(=O)OCC)oc3c2CCC)ccc(C(C)=O)c1N`, the melting point fell in the range of 103 to 104 °C.

Compound `CN(C)c1c(F)c(F)c(F)c2c1c(=O)cc(C(=O)O)n2C1CC1` came in with a melting point of 160 to 163 °C.

As for `O=S(=O)(NCC1CCCO1)c1ccc(Nc2nc(OCC3CCCCC3)c3nc[nH]c3n2)cc1` (stereo unspecified), the melting point is 134 to 136 °C.

As to `CCc1nc(OC)c(NC(=O)N2CCN(c3cccc(O)c3)CC2)cc1C(=O)NC(C)C(=O)Nc1cc(CO)cc(Nc2c3ccccc3nc3ccccc23)c1` (stereo unspecified), the melting point lay within 207 to 209 °C.

With `CCOC(=O)COc1ccc2c(c1)CCCC2=O`, the melting point lay in the range of 39 to 41 °C.

As to `CCC12C=C(C(=O)OC)n3c4c(c5ccccc53)CCN(CCC1)C42` (stereo unspecified), the melting point lay in the range of 160 to 162 °C.

The compound `CCCNC(=O)C1=CCC2C3CCc4cc(O)ccc4C3CCC12C` (stereo unspecified) yielded a melting point of 168 to 169 °C.

`O=C1[C@@H]2[C@H](O)CCN2C(=O)N1c1ccc([N+](=O)[O-])c2ccccc12` (relative stereo) gave a melting point of 255 to 257 °C.

`CN(C)S(=O)(=O)c1ccccc1-c1cnc(N)c(C(=O)Nc2cccnc2)n1` registered a melting point of 222 to 223 °C.

`CCCCc1nc2cc(C(=O)OC)ccc2[nH]1` displayed a melting point of 108 to 110 °C.

The compound `CC1C[C@H]2[C@@H](O1)[C@H](N=[N+]=[N-])C(=O)N2Cc1ccccc1` (relative stereo) displayed a melting point of 70 to 73 °C.
